# How the values were obtained:
# Assay in all cases: KINOMEscan competition binding
# Settings in all cases: compound 0.5 µM
# MAPKAPK2 (human) = MAPKAPK2 (human) (UniProt P49137)
# CDK16 (human) = CDK16 (human) (UniProt Q00536)
# NTRK2 (human) = NTRK2 (human) (UniProt Q16620)
# PDGFRA (human) = PDGFRA (human) (UniProt P16234)
# DCLK3 (human) = DCLK3 (human) (UniProt Q9C098)
# MAK (human) = MAK (human) (UniProt P20794)
# TYRO3 (human) = TYRO3 (human) (UniProt Q06418)
# PHKG1 (human) = PHKG1 (human) (UniProt Q16816)
# FES (human) = FES (human) (UniProt P07332)
# GRK1 (human) = GRK1 (human) (UniProt Q15835)
# CSNK1G1 (human) = CSNK1G1 (human) (UniProt Q9HCP0)
# NLK (human) = NLK (human) (UniProt Q9UBE8)
# PTK2 (human) = PTK2 (human) (UniProt Q05397)
# MAP2K7 (human) = MAP2K7 (human) (UniProt O14733)
# MYLK (human) = MYLK (human) (UniProt Q15746)
# MKNK2 (human) = MKNK2 (human) (UniProt Q9HBH9)
# SRPK1 (human) = SRPK1 (human) (UniProt Q96SB4)
# DAPK2 (human) = DAPK2 (human) (UniProt Q9UIK4)
# CDC42BPA (human) = CDC42BPA (human) (UniProt Q5VT25)
# [1] = system: KIT (human), P10721 [D816V]
# MAP2K3 (human) = MAP2K3 (human) (UniProt P46734)
# MAPK9 (human) = MAPK9 (human) (UniProt P45984)
# CLK3 (human) = CLK3 (human) (UniProt P49761)
# MAP4K3 (human) = MAP4K3 (human) (UniProt Q8IVH8)
# PIK3CD (human) = PIK3CD (human) (UniProt O00329)
# ULK1 (human) = ULK1 (human) (UniProt O75385)
# MLTK (human) = MLTK (human) (UniProt Q9NYL2)
# RIOK2 (human) = RIOK2 (human) (UniProt Q9BVS4)
# RIOK1 (human) = RIOK1 (human) (UniProt Q9BRS2)
# GRK4 (human) = GRK4 (human) (UniProt P32298)
# CSF1R (human) = CSF1R (human) (UniProt P07333)
# PRKCH (human) = PRKCH (human) (UniProt P24723)
# ADCK4 (human) = ADCK4 (human) (UniProt Q96D53)
# EPHB2 (human) = EPHB2 (human) (UniProt P29323)
# [2] = system: KIT (human), P10721 [A829P]
# HIPK3 (human) = HIPK3 (human) (UniProt Q9H422)
# RPS6KA2 KD1 (human) = RPS6KA2 KD1 (human) (UniProt Q15349)
# [3] = system: LRRK2 (human), Q5S007 [G2019S]
# PAK3 (human) = PAK3 (human) (UniProt O75914)
# Chain of FES (human) (P07332 whole entry, looked up): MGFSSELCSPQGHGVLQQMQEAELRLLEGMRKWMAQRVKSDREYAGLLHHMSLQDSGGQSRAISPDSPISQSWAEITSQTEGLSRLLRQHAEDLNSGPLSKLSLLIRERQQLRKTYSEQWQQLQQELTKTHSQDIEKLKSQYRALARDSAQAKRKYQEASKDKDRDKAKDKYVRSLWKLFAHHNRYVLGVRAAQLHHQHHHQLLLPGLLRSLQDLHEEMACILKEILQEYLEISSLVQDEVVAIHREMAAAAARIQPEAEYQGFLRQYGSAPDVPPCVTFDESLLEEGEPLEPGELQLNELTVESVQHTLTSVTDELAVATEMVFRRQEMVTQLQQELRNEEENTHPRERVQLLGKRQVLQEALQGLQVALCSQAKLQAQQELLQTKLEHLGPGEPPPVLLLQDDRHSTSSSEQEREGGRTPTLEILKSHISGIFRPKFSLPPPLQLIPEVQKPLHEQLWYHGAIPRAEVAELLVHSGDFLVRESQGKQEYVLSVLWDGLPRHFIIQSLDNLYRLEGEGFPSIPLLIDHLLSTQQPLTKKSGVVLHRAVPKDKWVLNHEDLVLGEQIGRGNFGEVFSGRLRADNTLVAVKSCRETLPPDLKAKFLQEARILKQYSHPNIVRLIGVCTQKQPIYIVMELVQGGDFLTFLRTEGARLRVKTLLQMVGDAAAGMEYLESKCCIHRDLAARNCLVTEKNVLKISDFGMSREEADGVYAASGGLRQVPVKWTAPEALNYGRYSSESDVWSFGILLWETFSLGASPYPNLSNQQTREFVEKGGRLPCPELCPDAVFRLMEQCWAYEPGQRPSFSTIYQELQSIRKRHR
# Chain of MAP2K3 (human) (P46734 whole entry, looked up): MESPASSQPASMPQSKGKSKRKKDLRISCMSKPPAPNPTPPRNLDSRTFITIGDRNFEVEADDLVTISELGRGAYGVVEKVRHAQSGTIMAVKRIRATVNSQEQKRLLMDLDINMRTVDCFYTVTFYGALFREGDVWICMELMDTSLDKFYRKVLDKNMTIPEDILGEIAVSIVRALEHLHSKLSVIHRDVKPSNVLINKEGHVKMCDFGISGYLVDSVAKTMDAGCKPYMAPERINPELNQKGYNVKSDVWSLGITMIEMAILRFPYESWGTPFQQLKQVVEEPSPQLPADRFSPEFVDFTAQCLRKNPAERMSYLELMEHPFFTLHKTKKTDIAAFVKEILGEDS
# Chain of LRRK2 (human), Q5S007 [G2019S] (Q5S007 whole entry G2019S, looked up): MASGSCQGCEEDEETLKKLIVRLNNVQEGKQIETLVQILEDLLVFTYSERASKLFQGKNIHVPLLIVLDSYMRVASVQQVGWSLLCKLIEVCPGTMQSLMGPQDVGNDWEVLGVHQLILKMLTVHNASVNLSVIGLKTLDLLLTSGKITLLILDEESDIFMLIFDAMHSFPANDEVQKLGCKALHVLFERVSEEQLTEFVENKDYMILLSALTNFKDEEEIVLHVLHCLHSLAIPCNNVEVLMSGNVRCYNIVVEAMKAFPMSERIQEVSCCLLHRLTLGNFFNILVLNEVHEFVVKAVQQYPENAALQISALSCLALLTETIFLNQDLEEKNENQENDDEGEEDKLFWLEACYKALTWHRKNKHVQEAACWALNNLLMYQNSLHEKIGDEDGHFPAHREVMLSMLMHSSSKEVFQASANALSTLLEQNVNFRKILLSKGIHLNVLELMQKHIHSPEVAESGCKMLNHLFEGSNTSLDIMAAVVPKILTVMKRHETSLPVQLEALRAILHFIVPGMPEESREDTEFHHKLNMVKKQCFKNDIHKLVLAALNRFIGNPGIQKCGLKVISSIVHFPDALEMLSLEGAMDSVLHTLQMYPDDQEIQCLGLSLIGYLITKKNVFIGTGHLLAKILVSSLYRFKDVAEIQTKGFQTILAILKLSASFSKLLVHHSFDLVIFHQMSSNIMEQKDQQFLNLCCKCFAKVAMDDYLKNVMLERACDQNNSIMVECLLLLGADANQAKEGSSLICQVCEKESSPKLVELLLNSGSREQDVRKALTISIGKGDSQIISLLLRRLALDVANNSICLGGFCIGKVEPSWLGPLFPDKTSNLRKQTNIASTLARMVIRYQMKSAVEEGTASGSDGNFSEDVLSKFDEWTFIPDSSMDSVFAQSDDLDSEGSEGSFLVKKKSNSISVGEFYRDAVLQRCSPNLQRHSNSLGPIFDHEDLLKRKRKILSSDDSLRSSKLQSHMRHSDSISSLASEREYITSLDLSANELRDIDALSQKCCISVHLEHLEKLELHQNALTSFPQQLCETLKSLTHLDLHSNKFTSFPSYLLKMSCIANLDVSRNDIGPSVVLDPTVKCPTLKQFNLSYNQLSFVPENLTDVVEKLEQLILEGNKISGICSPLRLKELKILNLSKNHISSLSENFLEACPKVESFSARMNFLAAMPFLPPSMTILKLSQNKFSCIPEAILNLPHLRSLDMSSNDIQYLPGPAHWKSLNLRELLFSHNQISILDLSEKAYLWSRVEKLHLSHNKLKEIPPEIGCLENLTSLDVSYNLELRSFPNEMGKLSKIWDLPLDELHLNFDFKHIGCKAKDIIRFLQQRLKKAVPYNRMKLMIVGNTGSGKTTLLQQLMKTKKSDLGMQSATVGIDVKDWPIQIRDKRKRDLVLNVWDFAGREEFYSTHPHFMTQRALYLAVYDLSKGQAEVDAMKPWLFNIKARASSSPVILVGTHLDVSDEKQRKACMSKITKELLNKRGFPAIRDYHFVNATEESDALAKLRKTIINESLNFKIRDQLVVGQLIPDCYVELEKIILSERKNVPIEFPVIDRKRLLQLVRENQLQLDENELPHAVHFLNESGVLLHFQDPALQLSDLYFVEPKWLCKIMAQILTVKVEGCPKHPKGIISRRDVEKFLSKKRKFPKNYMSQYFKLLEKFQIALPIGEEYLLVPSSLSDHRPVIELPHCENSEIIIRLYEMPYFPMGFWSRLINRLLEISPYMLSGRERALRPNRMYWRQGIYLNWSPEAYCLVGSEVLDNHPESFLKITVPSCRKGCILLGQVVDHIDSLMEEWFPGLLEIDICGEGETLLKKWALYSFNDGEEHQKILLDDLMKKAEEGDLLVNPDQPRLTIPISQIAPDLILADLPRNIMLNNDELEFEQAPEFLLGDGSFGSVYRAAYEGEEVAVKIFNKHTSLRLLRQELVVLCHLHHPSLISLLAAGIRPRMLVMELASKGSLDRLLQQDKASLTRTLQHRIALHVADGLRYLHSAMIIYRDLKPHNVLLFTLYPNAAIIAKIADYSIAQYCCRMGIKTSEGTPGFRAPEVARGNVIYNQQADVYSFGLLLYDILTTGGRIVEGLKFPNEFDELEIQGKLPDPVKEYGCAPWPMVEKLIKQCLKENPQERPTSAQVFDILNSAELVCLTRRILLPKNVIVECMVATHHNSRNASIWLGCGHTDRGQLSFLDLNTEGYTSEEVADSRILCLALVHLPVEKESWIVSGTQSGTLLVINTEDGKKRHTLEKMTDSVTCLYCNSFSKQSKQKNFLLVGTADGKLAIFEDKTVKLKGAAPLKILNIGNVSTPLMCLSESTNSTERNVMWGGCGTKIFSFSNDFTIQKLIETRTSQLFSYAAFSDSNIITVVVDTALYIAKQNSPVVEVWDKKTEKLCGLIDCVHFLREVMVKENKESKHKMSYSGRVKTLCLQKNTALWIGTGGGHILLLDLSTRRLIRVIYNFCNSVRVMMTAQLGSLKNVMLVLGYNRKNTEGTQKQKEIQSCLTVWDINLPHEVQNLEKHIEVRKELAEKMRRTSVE
# Chain of DCLK3 (human) (Q9C098 whole entry, looked up): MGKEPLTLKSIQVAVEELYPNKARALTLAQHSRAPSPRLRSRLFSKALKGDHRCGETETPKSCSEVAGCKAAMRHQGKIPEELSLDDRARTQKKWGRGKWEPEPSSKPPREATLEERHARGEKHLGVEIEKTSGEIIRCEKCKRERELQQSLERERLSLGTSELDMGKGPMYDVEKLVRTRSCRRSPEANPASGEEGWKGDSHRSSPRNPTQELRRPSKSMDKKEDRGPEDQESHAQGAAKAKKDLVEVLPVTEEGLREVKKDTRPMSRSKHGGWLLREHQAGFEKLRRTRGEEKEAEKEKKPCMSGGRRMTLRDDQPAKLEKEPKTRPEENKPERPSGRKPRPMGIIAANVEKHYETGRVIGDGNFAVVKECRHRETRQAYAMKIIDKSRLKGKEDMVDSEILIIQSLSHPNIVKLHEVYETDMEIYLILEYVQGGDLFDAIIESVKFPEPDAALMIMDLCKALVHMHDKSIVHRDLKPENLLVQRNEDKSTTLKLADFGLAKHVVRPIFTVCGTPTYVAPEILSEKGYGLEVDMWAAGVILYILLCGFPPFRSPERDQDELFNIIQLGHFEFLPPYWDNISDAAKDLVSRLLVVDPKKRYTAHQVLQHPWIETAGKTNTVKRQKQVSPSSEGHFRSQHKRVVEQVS
# Chain of SRPK1 (human) (Q96SB4 whole entry, looked up): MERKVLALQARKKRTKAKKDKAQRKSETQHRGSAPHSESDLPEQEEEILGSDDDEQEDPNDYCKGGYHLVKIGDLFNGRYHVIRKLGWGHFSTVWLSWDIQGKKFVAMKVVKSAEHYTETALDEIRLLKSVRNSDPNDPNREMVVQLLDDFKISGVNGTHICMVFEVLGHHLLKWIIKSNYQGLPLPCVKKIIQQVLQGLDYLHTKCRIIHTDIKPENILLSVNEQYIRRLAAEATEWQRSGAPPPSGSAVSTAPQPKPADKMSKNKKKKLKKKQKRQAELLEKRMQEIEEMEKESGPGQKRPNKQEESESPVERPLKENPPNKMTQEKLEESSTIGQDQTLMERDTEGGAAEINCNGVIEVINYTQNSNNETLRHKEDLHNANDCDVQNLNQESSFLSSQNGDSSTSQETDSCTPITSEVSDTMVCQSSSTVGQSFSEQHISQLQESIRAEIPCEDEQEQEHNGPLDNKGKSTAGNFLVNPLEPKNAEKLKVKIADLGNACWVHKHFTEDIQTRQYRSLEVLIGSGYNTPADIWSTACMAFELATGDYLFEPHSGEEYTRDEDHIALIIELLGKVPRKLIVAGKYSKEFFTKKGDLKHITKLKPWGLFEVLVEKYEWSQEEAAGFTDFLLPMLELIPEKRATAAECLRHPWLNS
structure (smiles),measurement,setting,value
Cn1c2ccccc2c2c3c(c4c5ccccc5n(CCC#N)c4c21)CNC3=O,"kinase still bound, per cent of control",MAPKAPK2 (human),100%
same,"kinase still bound, per cent of control",CDK16 (human),93%
same,"kinase still bound, per cent of control",NTRK2 (human),1.2%
same,"kinase still bound, per cent of control",PDGFRA (human),100%
same,"kinase still bound, per cent of control",DCLK3 (human),100%
same,"kinase still bound, per cent of control",MAK (human),100%
same,"kinase still bound, per cent of control",TYRO3 (human),78%
same,"kinase still bound, per cent of control",PHKG1 (human),0.1%
same,"kinase still bound, per cent of control",FES (human),85%
same,"kinase still bound, per cent of control",GRK1 (human),15%
same,"kinase still bound, per cent of control",CSNK1G1 (human),100%
same,"kinase still bound, per cent of control",NLK (human),100%
same,"kinase still bound, per cent of control",PTK2 (human),73%
same,"kinase still bound, per cent of control",MAP2K7 (human),79%
same,"kinase still bound, per cent of control",MYLK (human),56%
same,"kinase still bound, per cent of control",MKNK2 (human),11%
same,"kinase still bound, per cent of control",SRPK1 (human),5.6%
same,"kinase still bound, per cent of control",DAPK2 (human),61%
same,"kinase still bound, per cent of control",CDC42BPA (human),94%
same,"kinase still bound, per cent of control",[1],2%
same,"kinase still bound, per cent of control",MAP2K3 (human),5%
same,"kinase still bound, per cent of control",MAPK9 (human),46%
same,"kinase still bound, per cent of control",CLK3 (human),94%
same,"kinase still bound, per cent of control",MAP4K3 (human),6%
same,"kinase still bound, per cent of control",PIK3CD (human),45%
same,"kinase still bound, per cent of control",ULK1 (human),92%
same,"kinase still bound, per cent of control",MLTK (human),96%
same,"kinase still bound, per cent of control",RIOK2 (human),64%
same,"kinase still bound, per cent of control",RIOK1 (human),0.6%
same,"kinase still bound, per cent of control",GRK4 (human),3%
same,"kinase still bound, per cent of control",CSF1R (human),37%
same,"kinase still bound, per cent of control",PRKCH (human),18%
same,"kinase still bound, per cent of control",ADCK4 (human),93%
same,"kinase still bound, per cent of control",EPHB2 (human),100%
same,"kinase still bound, per cent of control",[2],54%
same,"kinase still bound, per cent of control",HIPK3 (human),12%
same,"kinase still bound, per cent of control",RPS6KA2 KD1 (human),5.4%
same,"kinase still bound, per cent of control",[3],9.4%
same,"kinase still bound, per cent of control",PAK3 (human),70%

# — the kinase profiling compilation of Christmann-Franck et al. (2016)
